Test results taken from ChEMBL document CHEMBL6074686 (Eur J Med Chem, 2025).
pIC50: −log10 of the molar value. Activity calls are given as the source filed them. The rule behind the calls is not given here.

What was measured:
[1] = test system: A549; experiment: Antitumor activity against human A549 cells assessed as reduction in cell viability incubated for 72 hrs by CCK8 assay; format: functional, cell-based; conditions: A549, 72 h
[2] = test system: MCF7; experiment: Antitumor activity against human MCF7 cells assessed as reduction in cell viability incubated for 72 hrs by CCK8 assay; format: functional, cell-based; conditions: MCF7, 72 h
[3] = test system: MDA-MB-231; experiment: Antitumor activity against human MDA-MB-231 cells assessed as reduction in cell viability incubated for 72 hrs by CCK8 assay; conditions: MDA-MB-231, 72 h
[4] = test system: SK-OV-3; experiment: Antitumor activity against human SK-OV-3 cells assessed as reduction in cell viability incubated for 72 hrs by CCK8 assay; format: functional, cell-based; conditions: SK-OV-3, 72 h
[5] = biological target: T1, Tubulin (Homo sapiens) (UniProt P68371+Q9H4B7+P0DPH7+P68366+Q13509+Q71U36+P04350+Q3ZCM7+P07437+P68363+Q9BQE3+Q6PEY2+Q13885+Q9BVA1+Q9BUF5); experiment: Inhibition of tubulin polymerization in human SK-OV-3 cells at 20 nM incubated for 18 hrs by Alexa Fluor 488 staining based confocal immunofluorescent microscopic analysis; format: cell-based
[6] = test system: SK-OV-3; experiment: Antitumor activity against human SK-OV-3 cells xenografted in female BALB/c nude mouse assessed as tumor growth inhibition at 10 mg/kg, […] via tail vein once every 2 to 3 days; format: functional; conditions: time 2-3 day, read-out: TGI
[7] = biological target: T1, Tubulin (Homo sapiens); experiment: Inhibition of tubulin polymerization (unknown origin) assessed as increase in optical density at 340 nm at 10 uM; format: protein-complex assay

| SMILES | pIC50 [1] | pIC50 [2] | pIC50 [3] | pIC50 [4] | inhibition [5] | inhibition in vivo at 10 mg/kg [6] [%] | inhibition [7] |
| --- | --- | --- | --- | --- | --- | --- | --- |
| COc1ccc2c(c1)CCCN2c1nc(N2CCOCC2)nc2ccc(F)cc12 | 7.27 | 7.22 | 7.24 | 7.50 |  |  |  |
| CCNc1nc(N2CCCc3cc(OC)ccc32)c2cc(F)ccc2n1 | 8.02 | 8.42 | 8.09 | 8.31 |  |  |  |
| COc1ccc2c(c1)CCCN2c1nc(NC(C)C)nc2ccc(F)cc12 | 7.34 | 7.82 | 7.60 | 7.65 |  |  |  |
| COc1ccc2c(c1)CCCN2c1nc(NC2CC2)nc2ccc(F)cc12 | 8.12 | 8.62 | 7.94 | 8.82 |  |  |  |
| COc1ccc2c(c1)CCCN2c1nc(NCCCO)nc2ccc(F)cc12 | 7.90 | 8.22 | 8.03 | 8.24 |  |  |  |
| COc1ccc2c(c1)CCCN2c1nc(Cl)nc2ccc(F)cc12 | 7.53 | 7.61 | 7.44 | 7.65 |  |  |  |
| COc1ccc2c(c1)CCCN2c1nc(Cl)nc2ccc(I)cc12 | 6.50 | 6.26 | 6.49 | 6.80 |  |  |  |
| COc1ccc2c(c1)CCCN2c1nc(Cl)nc2ccc(C)cc12 | 7.53 | 7.34 | 7.43 | 7.42 |  |  |  |
| CCCNc1nc(N2CCCc3cc(OC)ccc32)c2cc(F)ccc2n1 | 7.71 | 7.93 | 7.59 | 8.17 |  |  |  |
| CCCCNc1nc(N2CCCc3cc(OC)ccc32)c2cc(F)ccc2n1 | 7.16 | 7.33 | 7.21 | 7.59 |  |  |  |
| COc1ccc2c(c1)CCCN2c1nc(NCCN(C)C)nc2ccc(F)cc12 | < 6.00 | < 6.00 | < 6.00 | < 6.00 |  |  |  |
| COc1ccc2c(c1)CCCN2c1nc(Cl)nc2ccc(Br)cc12 | 7.82 | 7.17 | 7.18 | 7.20 |  |  |  |
| COc1ccc2c(c1)CCCN2c1nc(Cl)nc2ccc(Cl)cc12 | 7.17 | 7.43 | 7.61 | 7.40 |  |  |  |
| COc1ccc2c(c1)CCCN2c1nc(NC(C)(C)C)nc2ccc(F)cc12 | < 6.00 | < 6.00 | < 6.00 | < 6.00 |  |  |  |
| COc1ccc2c(c1)CCCN2c1nc(Cl)nc2ccc(C(F)(F)F)cc12 | < 6.00 | < 6.00 | < 6.00 | < 6.00 |  |  |  |
| COc1ccc2c(c1)CCCN2c1nc(N2CCCCC2)nc2ccc(F)cc12 | < 6.00 | < 6.00 | < 6.00 | < 6.00 |  |  |  |
| COc1ccc(-c2nc(N3CCCc4cc(OC)ccc43)c3cc(F)ccc3n2)cc1 | < 6.00 | < 6.00 | < 6.00 | < 6.00 |  |  |  |
| COc1ccc2c(c1)CCCN2c1nc(N2CCCC2)nc2ccc(F)cc12 | < 6.00 | < 6.00 | < 6.00 | < 6.00 |  |  |  |

| SMILES | pIC50 [1] | pIC50 [2] | pIC50 [3] | pIC50 [4] | inhibition [5] | inhibition in vivo at 10 mg/kg [6] [%] | inhibition [7] |
| --- | --- | --- | --- | --- | --- | --- | --- |
| COc1ccc2c(c1)CCCN2c1nc(N2CCN(C)CC2)nc2ccc(F)cc12 | < 6.00 | < 6.00 | < 6.00 | < 6.00 |  |  |  |
| COc1ccc2c(c1)CCCN2c1nc(-c2cc(OC)c(OC)c(OC)c2)nc2ccc(F)cc12 | < 6.00 | < 6.00 | < 6.00 | < 6.00 |  |  |  |
| COc1ccc2c(c1)CCCN2c1nc(NC2CCCC2)nc2ccc(F)cc12 | < 6.00 | < 6.00 | < 6.00 | < 6.00 |  |  |  |
| COc1ccc2c(c1)CCCN2c1nc(N(C)C)nc2ccc(F)cc12 | 7.19 | 7.45 | 7.34 | 7.35 |  |  |  |
| COCCCNc1nc(N2CCCc3cc(OC)ccc32)c2cc(F)ccc2n1 | 7.48 | 7.55 | 7.40 | 7.72 |  |  |  |
| COc1ccc(Nc2nc(N3CCCc4cc(OC)ccc43)c3cc(F)ccc3n2)cc1 | < 6.00 | < 6.00 | < 6.00 | < 6.00 |  |  |  |
| COc1ccc2c(c1)CCCN2c1nc(NC2CCC2)nc2ccc(F)cc12 | 7.29 | 7.62 | 7.44 | 7.50 |  |  |  |
| COc1ccc2c(c1)CCCN2c1nc(N)nc2ccc(F)cc12 | 8.14 | 8.22 | 8.15 | 8.36 |  |  |  |
| COc1ccc2c(c1)CCCN2c1nc(Cl)nc2ccc(OC(F)(F)F)cc12 | < 6.00 | < 6.00 | < 6.00 | < 6.00 |  |  |  |
| COc1ccc2c(c1)CCCN2c1nc(NCC(C)C)nc2ccc(F)cc12 | 6.36 | 6.26 | 6.48 | 6.80 |  |  |  |
| COc1ccc2c(c1)CCCN2c1nc(NC2CCCCC2)nc2ccc(F)cc12 | < 6.00 | < 6.00 | < 6.00 | < 6.00 |  |  |  |
| CC(=O)O[C@H]1C(=O)[C@@]2(C)[C@H]([C@H](OC(=O)c3ccccc3)[C@]3(O)C[C@H](OC(=O)[C@H](O)[C@@H](NC(=O)c4ccccc4)c4ccccc4)C(C)=C1C3(C)C)[C@]1(OC(C)=O)CO[C@@H]1C[C@@H]2O [PACLITAXEL] | 8.77 | 7.51 |  | 7.94 | Not active; Aggregated Into Bundle Like Filamentary Structure | 39.1 | Active |
| COCCNc1nc(N2CCCc3cc(OC)ccc32)c2cc(F)ccc2n1 | 7.64 | 7.75 | 7.80 | 8.47 |  |  |  |
| COc1cc2c(c(OC)c1OC)-c1ccc(OC)c(=O)cc1[C@@H](NC(C)=O)CC2 [COLCHICINE] | 7.50 |  | 7.92 | 8.20 |  |  |  |
| COc1ccc2c(c1)CCCN2c1nc(Cl)nc2ccc(OC)cc12 | 7.48 | 7.18 | 7.19 | 7.24 |  |  |  |
| CCN(CC)c1nc(N2CCCc3cc(OC)ccc32)c2cc(F)ccc2n1 | < 6.00 | 6.15 | 6.05 | 6.33 |  |  |  |
| COc1ccc2c(c1)CCCN2c1nc(NCCOCCOCCO)nc2ccc(F)cc12 | 7.04 | 6.72 | 6.86 | 7.16 |  |  |  |
| COc1ccc2c(c1)CCCN2c1nc(NCc2ccccc2)nc2ccc(F)cc12 | < 6.00 | < 6.00 | < 6.00 | < 6.00 |  |  |  |
